The values that follow come from patent US20030171386A1, “Small molecules for the treatment of abnormal cell growth” (Pfizer Inc., priority 2001, published 2003).

pIC50: −log10 of the molar value.

The conditions of data set [1]: clinical trials, patients; cited from earlier work.
Data set [2] concerns the target T1, chimeric EGFR/erbB2 kinase (Homo sapiens, UniProt P04626).
T1 construct: EGFR extracellular/erbB2 intracellular; expressed in transfected cells; host or cells: 3T3 cells; the other entry of the earlier key: EGFR (P00533, Epidermal growth factor receptor)
As to the kind of experiment: erbB2 receptor autophosphorylation, in vitro cell assay in transfected 3T3 cells. The class given is cell-based. As to conditions: intact 3T3 cells transfected with chimeric EGFR/erbB2 kinase; EGF-stimulated phosphotyrosine; read-out: Potency (IC50) for the erbB2 receptor. As for the experimental part:
The in vitro activity of small molecule compounds as erbB kinase inhibitors in intact cells may be determined by the following procedure. Cells, for example 3T3 cells transfected with human EGFR (Cohen et al. J. Virology 67:5303, 1993) or with chimeric EGFR/erbB2 kinase (EGFR extracellular/erbB2 intracellular, Fazioli et al. Mol. Cell. Biol. 11: 2040, 1991) are plated in 96-well plates at 12,000 cells per well in 100 μl medium (Dulbecco's […] (DMEM) with 5% fetal calf serum, 1% pen/streptomycin, 1% L-glutamine) and incubated at 37° C., 5% CO2 Test compounds are solubilized in DMSO at a concentration of 10 mM, and tested at final concentrations of 0, 0.3 μM, 1 μM, […], 0.1 μM and 10 μM in the medium. The cells are incubated at 37° C. for 2 h. EGF (40 ng/ml final) is added to each well and cells incubate at room temperature for 15 min followed by aspiration of medium, then 100 μl/well cold fixative (50% ethanol/50% acetone containing 200 micromolar sodium orthovanadate) is added. The plate is incubated for 30 min at room temperature followed by washing with wash buffer (0.5% Tween 20 in phosphate buffered saline). Blocking buffer (3% bovine serum albumin, 0.05% Tween 20, 200 μM sodium orthovanadate in phosphate buffered saline, 100 μl/well) is added followed by incubation for 2 hours at room temperature followed by two washes with wash buffer. PY54 monoclonal anti-phosphotyrosine antibody directly conjugated to horseradish peroxidase (50 μl/well, 1 μg/ml in blocking buffer) or blocked conjugate (1 μg/ml with 1 mM phosphotyrosine in blocking buffer, to check specificity) is added and the plates incubated for 2 hours at room temperature. The plate wells are then washed 4 times with wash buffer. The colorimetric signal is developed by addition of TMB Microwell Peroxidase Substrate (Kirkegaard and Perry, Gaithersburg, Md.), 50 μl per well, and stopped by the addition of 0.09 M sulfuric acid, 50 μl per well. Absorbance at 450 nm represents phosphotyrosine content of proteins. The increase in signal in EGF-treated cells over control (non-EGF treated) represents the activity of the EGFR or EGFR/chimera respectively. The potency of an inhibitor is determined by measurement of the concentration of compound needed to inhibit the increase in phosphotyrosine by 50% (IC50) in each cell line. The selectivity of the compounds for erbB2 vs. EGFR is determined by comparison of the IC50 for the EGFR transfectant vs. that for the erbB2/EGFR chimera transfectant. Thus, for example, a compound with an IC50 of 100 nM for the EGFR transfectant and 10 nM for the erbB2/EGFR chimera transfectant is considered 10-fold selective for erbB2 kinase.
(§1) The IC50 values for the inhibition of erbB1 receptor autophosphorylation and erbB2 receptor autophophorylation were determined using the in vitro cell assays described above.

The target in the next data set is T2, human EGFR (Homo sapiens, UniProt P00533).
T2 construct: expressed in transfected cells; host or cells: 3T3 cells
T2 sequence (P00533 25-1210): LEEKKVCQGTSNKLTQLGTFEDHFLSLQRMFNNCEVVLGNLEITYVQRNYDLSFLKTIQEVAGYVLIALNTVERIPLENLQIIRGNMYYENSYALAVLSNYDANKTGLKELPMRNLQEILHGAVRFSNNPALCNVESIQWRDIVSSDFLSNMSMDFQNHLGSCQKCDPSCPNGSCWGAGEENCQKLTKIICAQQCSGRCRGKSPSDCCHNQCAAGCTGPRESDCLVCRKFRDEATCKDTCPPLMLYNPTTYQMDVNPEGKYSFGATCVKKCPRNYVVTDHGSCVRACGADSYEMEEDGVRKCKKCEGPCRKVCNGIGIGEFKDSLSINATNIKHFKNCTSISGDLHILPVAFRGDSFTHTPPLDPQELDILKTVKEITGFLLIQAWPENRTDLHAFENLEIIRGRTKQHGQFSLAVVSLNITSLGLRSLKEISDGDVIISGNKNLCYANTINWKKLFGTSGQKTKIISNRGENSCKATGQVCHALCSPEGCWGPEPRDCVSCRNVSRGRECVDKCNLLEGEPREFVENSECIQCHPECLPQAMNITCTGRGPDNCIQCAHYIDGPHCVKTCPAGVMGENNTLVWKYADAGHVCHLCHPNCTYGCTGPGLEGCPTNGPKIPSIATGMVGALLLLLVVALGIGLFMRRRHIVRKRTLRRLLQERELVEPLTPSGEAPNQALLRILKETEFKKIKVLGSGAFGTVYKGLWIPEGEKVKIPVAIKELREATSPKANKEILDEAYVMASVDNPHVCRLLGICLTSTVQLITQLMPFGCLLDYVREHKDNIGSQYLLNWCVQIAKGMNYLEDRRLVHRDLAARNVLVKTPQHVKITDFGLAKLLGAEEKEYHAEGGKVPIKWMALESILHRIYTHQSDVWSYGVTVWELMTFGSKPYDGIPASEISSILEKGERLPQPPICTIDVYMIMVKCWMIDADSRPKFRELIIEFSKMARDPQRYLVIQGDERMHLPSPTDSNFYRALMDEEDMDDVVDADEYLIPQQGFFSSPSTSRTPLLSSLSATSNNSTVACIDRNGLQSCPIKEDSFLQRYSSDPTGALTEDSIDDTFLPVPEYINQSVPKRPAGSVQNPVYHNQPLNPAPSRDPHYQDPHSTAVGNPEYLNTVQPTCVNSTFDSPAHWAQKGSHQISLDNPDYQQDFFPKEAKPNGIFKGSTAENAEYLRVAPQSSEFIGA
As to the kind of experiment: erbB1 receptor autophosphorylation, in vitro cell assay in transfected 3T3 cells, used for the erbB2 versus erbB1 selectivity ratio. The class given is cell-based. As to conditions: comparison of IC50 for EGFR transfectant vs. erbB2/EGFR chimera transfectant. As for the experimental part:
The in vitro activity of small molecule compounds as erbB kinase inhibitors in intact cells may be determined by the following procedure. […] The cells are incubated at 37° C. for 2 h. EGF (40 ng/ml final) is added to each well and cells incubate at room temperature for 15 min followed by aspiration of medium, then 100 μl/well cold fixative (50% ethanol/50% acetone containing 200 micromolar sodium orthovanadate) is added. The plate is incubated for 30 min at room temperature followed by washing with wash buffer (0.5% Tween 20 in phosphate buffered saline). Blocking buffer (3% bovine serum albumin, 0.05% Tween 20, 200 μM sodium orthovanadate in phosphate buffered saline, 100 μl/well) is added followed by incubation for 2 hours at room temperature followed by two washes with wash buffer. PY54 monoclonal anti-phosphotyrosine antibody directly conjugated to horseradish peroxidase (50 μl/well, 1 μg/ml in blocking buffer) or blocked conjugate (1 μg/ml with 1 mM phosphotyrosine in blocking buffer, to check specificity) is added and the plates incubated for 2 hours at room temperature. The plate wells are then washed 4 times with wash buffer. The colorimetric signal is developed by addition of TMB Microwell Peroxidase Substrate (Kirkegaard and Perry, Gaithersburg, Md.), 50 μl per well, and stopped by the addition of 0.09 M sulfuric acid, 50 μl per well. […] The increase in signal in EGF-treated cells over control (non-EGF treated) represents the activity of the EGFR or EGFR/chimera respectively. […] The selectivity of the compounds for erbB2 vs. EGFR is determined by comparison of the IC50 for the EGFR transfectant vs. that for the erbB2/EGFR chimera transfectant.
as §1

T1 sequence (P04626 720-1255 limits assumed, change not shown): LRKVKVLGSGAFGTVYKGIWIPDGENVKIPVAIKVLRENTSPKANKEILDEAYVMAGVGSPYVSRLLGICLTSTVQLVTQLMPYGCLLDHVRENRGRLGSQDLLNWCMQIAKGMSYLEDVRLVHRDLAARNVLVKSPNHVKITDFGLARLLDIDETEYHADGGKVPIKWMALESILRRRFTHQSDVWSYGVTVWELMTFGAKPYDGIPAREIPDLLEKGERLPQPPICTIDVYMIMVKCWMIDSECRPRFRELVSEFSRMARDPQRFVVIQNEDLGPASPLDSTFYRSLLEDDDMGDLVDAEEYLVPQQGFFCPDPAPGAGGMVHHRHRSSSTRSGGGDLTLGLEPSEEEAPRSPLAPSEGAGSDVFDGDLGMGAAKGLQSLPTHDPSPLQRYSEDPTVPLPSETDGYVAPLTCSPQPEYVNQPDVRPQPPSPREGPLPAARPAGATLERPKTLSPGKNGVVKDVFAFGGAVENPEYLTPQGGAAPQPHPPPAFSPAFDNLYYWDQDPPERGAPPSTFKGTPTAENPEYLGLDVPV

For the compound `C=CC(=O)Nc1cc2c(Nc3ccc(F)c(Cl)c3)ncnc2cc1OCCCN1CCOCC1` [CI-1033], the “dermal toxicity (rash)” value in data set [1] is recorded as “dermal toxicity in the form of a rash occurs”.

Regarding `C#Cc1cccc(Nc2ncnc3cc(OCCOC)c(OCCOC)cc23)c1` [CP-358,774], in data set [1], the “dermal toxicity (rash)” value is listed as “this adverse event was observed”.

Take `CCOc1cc2ncc(C#N)c(Nc3ccc(F)c(Cl)c3)c2cc1NC(=O)/C=C/CN(C)C` [EKB-569]: the “dermal toxicity (rash)” value in data set [1] was “dermal toxicity in the form of a rash occurs”.

For `CC(=O)C(=O)NCC#Cc1ccc2ncnc(Nc3cnc(Oc4ccccc4)c(C)c3)c2c1` [Example 1, N-{3-[4-(5-Methyl-6-phenoxy-pyridin-3-ylamino)-quinazolin-6-yl]-prop-2-ynyl}-2-oxo-propionamide], in data set [2], the pIC50 was more than 7.70. Also, the “erbB2/erbB1 ratio (selectivity)” value at human EGFR worked out at 101.

Regarding `Cc1cc(Nc2ncnc3ccc(/C=C/CNC(=O)C4CC4)cc23)ccc1Oc1cccnc1` [Example 2, E-Cyclopropanecarboxylic acid (3-{4-[3-methyl-4-(pyridin-3-yloxy)-phenylamino]-quinazolin-6-yl}-allyl)-amide], the pIC50 in data set [2] is 7.30 to 7.68. Besides, the “erbB2/erbB1 ratio (selectivity)” value on human EGFR is listed as 658.

Consider `COCC(=O)NCC#Cc1ccc2ncnc(Nc3ccc(Oc4cccc(OC)c4)c(C)c3)c2c1` [Example 3, 2-Methoxy-N-(3-{4-[4-(3-methoxy-phenoxy)-3-methyl-phenylamino]-quinazolin-6-yl}-prop-2-ynyl)-acetamide], for which the pIC50 in data set [2] was 7.30 to 7.68. Also, the “erbB2/erbB1 ratio (selectivity)” value on human EGFR amounted to 103.

As to `Cc1ccc(Oc2ccc(Nc3ncnc4ccc(/C=C/CNC(=O)C5CC5)cc34)cc2Cl)cn1` [Example 4, E-Cyclopropanecarboxylic acid (3-{4-[3-chloro-4-(6-methyl-pyridin-3-yloxy)-phenylamino]-quinazolin-6-yl}-allyl)-amide], the pIC50 in data set [2] is 7.30 to 7.68. The “erbB2/erbB1 ratio (selectivity)” value at human EGFR is on record as 142.

Take `CC(=O)NC/C=C/c1ccc2ncnc(Nc3ccc(Oc4ccc(C)nc4)c(Cl)c3)c2c1` [Example 5, E-N-(3-{4-[3-Chloro-4-(6-methyl-pyridin-3-yloxy)-phenylamino]-quinazolin-6-yl}-allyl)-acetamide]: the pIC50 in data set [2] is 7.30 to 7.68. The “erbB2/erbB1 ratio (selectivity)” value at human EGFR worked out at 108.

For `Cc1ccc(Oc2ccc(Nc3ncnc4ccc(/C=C/CNC(=O)c5cc(C)on5)cc34)cc2C)cn1` [Example 6, E-5-Methyl-isoxazole-3-carboxylic acid (3-{4-[3-methyl-4-(6-methyl-pyridin-3-yloxy)-phenylamino]-quinazolin-6-yl}-allyl)-amide], the pIC50 in data set [2] was more than 7.70. Further, the “erbB2/erbB1 ratio (selectivity)” value at human EGFR is given as 437.

`COC(=O)NC/C=C/c1ccc2ncnc(Nc3ccc(Oc4cccnc4)c(C)c3)c2c1` [Example 7, E-(3-{4-[3-Methyl-4-(pyridin-3-yloxy)-phenylamino]-quinazolin-6-yl}-allyl)-carbamic acid methyl ester]: the pIC50 in data set [2] was 7.30 to 7.68. Further, on human EGFR, the “erbB2/erbB1 ratio (selectivity)” value is recorded as 1133.

On to `COC1CCN(C(=O)NC(C)(C)C#Cc2ccc3ncnc(Nc4ccc(Oc5ccc(C)nc5)c(C)c4)c3c2)C1` (stereo not drawn) [Example 8, 3-Methoxy-pyrrolidine-1-carboxylic acid (1,1-dimethyl-3-{4-[3-methyl-4-(6-methyl-pyridin-3-yloxy)-phenylamino]-quinazolin-6-yl}-prop-2-ynyl)-amide], for which, in data set [2], the pIC50 is 7.00 to 7.29. Further, on human EGFR, the “erbB2/erbB1 ratio (selectivity)” value was determined as 308.

Turning to `COCC(=O)NC/C=C/c1ccc2ncnc(Nc3ccc(Oc4ccc(C)nc4)c(C)c3)c2c1` [Example 9, E-2-Methoxy-N-(3-{4-[3-methyl-4-(6-methyl-pyridin-3-yloxy)-phenylamino]-quinazolin-6-yl}-allyl)-acetamide], in data set [2], the pIC50 was 7.30 to 7.68. On human EGFR, the “erbB2/erbB1 ratio (selectivity)” value amounted to 116.

In the case of `CCNC(=O)NCC#Cc1ccc2ncnc(Nc3ccc(Oc4cccnc4)c(C)c3)c2c1` [Example 10, 1-Ethyl-3-(3-{4-[3-methyl-4-(pyridin-3-yloxy)-phenylamino]-quinazolin-6-yl}-prop-2-ynyl)-urea], in data set [2], the pIC50 was 7.30 to 7.68. In addition, on human EGFR, the “erbB2/erbB1 ratio (selectivity)” value was 112.

With `Cc1ccc(Oc2ccc(Nc3ncnc4ccc(/C=C/CNC(=O)C5CC5)cc34)cc2C)cn1` [Example 11, E-Cyclopropanecarboxylic acid (3-{4-[3-methyl-4-(6-methyl-pyridin-3-yloxy)-phenylamino]-quinazolin-6-yl}-allyl)-amide], the pIC50 in data set [2] is 7.30 to 7.68. For the same compound, the “erbB2/erbB1 ratio (selectivity)” value on human EGFR is on record as 122.

Consider `CCNC(=O)NCC#Cc1ccc2ncnc(Nc3ccc(Oc4cccnc4)c(Cl)c3)c2c1` [Example 12, 1-(3-{4-[3-Chloro-4-(pyridin-3-yloxy)-phenylamino]-quinazolin-6-yl}-prop-2-ynyl)-3-ethyl-urea], for which, in data set [2], the pIC50 is 7.30 to 7.68. The “erbB2/erbB1 ratio (selectivity)” value on human EGFR is on record as 121.

`Cc1cc(Nc2ncnc3ccc(C#CCNC(=O)CN(C)C)cc23)ccc1Oc1cccnc1` [Example 13, 2-Dimethylamino-N-(3-{4-[3-methyl-4-(pyridin-3-yloxy)-phenylamino]-quinazolin-6-yl}-prop-2-ynyl)-acetamide]: the negative logarithm of the IC50 (pIC50) in data set [2] was more than 7.70. In addition, the “erbB2/erbB1 ratio (selectivity)” value on human EGFR came out at 182.

With `Cc1cc(Nc2ncnc3ccc(C#CC4CCNCC4)cc23)ccc1Oc1cccnc1` [Example 14, [3-Methyl-4-(pyridin-3-yloxy)-phenyl]-(6-piperidin-4-ylethynyl-quinazolin-4-yl)-amine], the pIC50 in data set [2] was 7.30 to 7.68. The “erbB2/erbB1 ratio (selectivity)” value at human EGFR worked out at 196.

As for `COC(=O)NCC#Cc1ccc2ncnc(Nc3ccc(Oc4cccnc4)c(C)c3)c2c1` [Example 15, (3-{4-[3-Methyl-4-(pyridin-3-yloxy)-phenylamino]-quinazolin-6-yl}-prop-2-ynyl)-carbamic acid methyl ester], in data set [2], the pIC50 is 7.00 to 7.29. The “erbB2/erbB1 ratio (selectivity)” value on human EGFR was 140.

Take `Cc1ccc(Oc2ccc(Nc3ncnc4ccc(C#CCNC(=O)c5cc(C)no5)cc34)cc2C)cn1` [Example 16, 3-Methyl-isoxazole-5-carboxylic acid (3-{4-[3-methyl-4-(6-methyl-pyridin-3-yloxy)-phenylamino]-quinazolin-6-yl}-prop-2-ynyl)-amide]: in data set [2], the pIC50 was 7.30 to 7.68. The “erbB2/erbB1 ratio (selectivity)” value on human EGFR is 216.

On to `COc1cc2ncnc(Nc3ccc(F)c(Cl)c3)c2cc1OCCCN1CCOCC1` [ZD1839], for which, in data set [1], the “dermal toxicity (rash)” value was “this adverse event was observed”.

The term pIC50 denotes the negative decadic logarithm of the IC50, by convention in mol/L.
